Data as given in patent US20260356851A1, “TRICYCLIC COMPOUNDS AND USES THEREOF” (HUTCHMED LIMITED, priority 2023, published 2026).

Assays:
Assay type in all cases: cell-based
[1] = molecular target: T1, pERK1/2 (Thr202/Tyr204), PANC-1 (KRAS G121D) (Homo sapiens, UniProt P01116, G12D); test: Assay of intracellular pERK1/2 (Thr202/Tyr204) phosphorylation in PANC-1 cells (KRAS G12D); conditions: pERK1/2, 2 days, read-out: PANC-1 (KRAS G12D) IC50
T1 construct: pERK1/2 HTRF read-out
Method in brief: (§1)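 Cells (10000-12000/well) exposed to 3-fold compound dilutions for 2 days at 37 °C, then lysed; pERK1/2 (Thr202/Tyr204) measured by HTRF with d2 and cryptate antibodies, 665/615 nm ratio.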

[2] = molecular target: T2, pERK1/2 (Thr202/Tyr204), NCI-1H358 (KRAS G12C) (Homo sapiens, UniProt P01116, G12C); test: Assay of intracellular pERK1/2 (Thr202/Tyr204) phosphorylation in NCI-H358 cells (KRAS G12C); conditions: pERK1/2, 2 days, read-out: NCI-H358 (KRAS G12C) IC50
T2 construct: pERK1/2 HTRF read-out
Method in brief: as §1

[3] = molecular target: T3, pERK1/2 (Thr202/Tyr204), NCI-1H441 (KRAS G12V) (Homo sapiens, UniProt P01116, G12V); test: Assay of intracellular pERK1/2 (Thr202/Tyr204) phosphorylation in NCI-H441 cells (KRAS G12V); conditions: pERK1/2, 2 days, read-out: NCI-H441 (KRAS G12V) IC50
T3 construct: pERK1/2 HTRF read-out
Method in brief: as §1

T2 sequence (P01116 1-188 isoform P01116-2 G12C): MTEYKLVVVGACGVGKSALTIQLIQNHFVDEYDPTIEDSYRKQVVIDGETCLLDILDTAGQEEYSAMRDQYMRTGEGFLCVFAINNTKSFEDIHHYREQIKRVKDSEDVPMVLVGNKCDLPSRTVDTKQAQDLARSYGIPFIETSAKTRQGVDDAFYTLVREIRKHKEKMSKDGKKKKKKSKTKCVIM
T3 sequence (P01116 1-188 isoform P01116-2 G12V): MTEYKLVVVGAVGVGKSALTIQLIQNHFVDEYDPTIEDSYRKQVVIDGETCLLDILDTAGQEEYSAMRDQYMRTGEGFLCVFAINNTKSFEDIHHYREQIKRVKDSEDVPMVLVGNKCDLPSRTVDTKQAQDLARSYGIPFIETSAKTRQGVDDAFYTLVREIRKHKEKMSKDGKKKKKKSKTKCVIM
T1 sequence (P01116 1-188 isoform P01116-2 G12D): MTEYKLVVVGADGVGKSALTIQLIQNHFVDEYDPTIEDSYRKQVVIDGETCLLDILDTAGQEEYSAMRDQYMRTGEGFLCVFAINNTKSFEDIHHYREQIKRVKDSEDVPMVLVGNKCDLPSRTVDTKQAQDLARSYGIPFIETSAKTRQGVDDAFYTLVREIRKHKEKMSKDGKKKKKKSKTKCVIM

| Compound | IC50 [1] | IC50 [2] | IC50 [3] |
| --- | --- | --- | --- |
| [2H]C1([2H])CC[C@@]2(COc3nc4c5c(nc(-c6cc(N)c(F)c(Cl)c6C(F)(F)F)c(F)c5n3)OCCN4C(C)c3cccnc3N)C[C@@H](F)CN12 (stereo partly drawn) [Compound 221] | 2 nM | 0.1 nM | 0.4 nM |
| CC(c1cccnc1N)N1CCOc2nc(-c3cc(N)cc(F)c3C(F)(F)F)c(F)c3nc(OC[C@@]45CCCN4C[C@H](F)C5)nc1c23 (single isomer, unassigned) [Compound 88, 3-((R or S)-1-(5-(5-amino-3-fluoro-2-(trifluoromethyl)phenyl)-4-fluoro-2-(((2R,7aS)-2-fluorotetrahydro-1H-pyrrolizin-7a(5H)-yl)methoxy)-8,9-dihydro-10H-7-oxa-1,3,6,10-tetraazacyclohepta[de]naphthalen-10-yl)ethyl)pyridin-2-amine] | 3 nM | 0.4 nM | 1 nM |
| Cc1cc2[nH]ncc2c(-c2nc3c4c(nc(OC[C@@]56CCCN5C[C@H](F)C6)nc4c2F)N([C@@H](C)c2cc(F)cnc2N)[C@@H](C)CO3)c1C(F)(F)F [Compound 364] | > 100 nM | > 100 nM | > 100 nM |
| CC(c1cccnc1N)N1CCOc2nc(-c3cc(N)cc(F)c3C(F)(F)F)c(F)c3nc(OC[C@@H]4C[C@@H](F)CN4C)nc1c23 (single isomer, unassigned) [Compound 93, 3-((R or S)-1-(5-(5-amino-3-fluoro-2-(trifluoromethyl)phenyl)-4-fluoro-2-(((2S,4R)-4-fluoro-1-methylpyrrolidin-2-yl)methoxy)-8,9-dihydro-10H-7-oxa-1,3,6,10-tetraazacyclohepta[de]naphthalen-10-yl)ethyl)pyridin-2-amine] | > 100 nM | > 100 nM | > 100 nM |
| CC(c1cccnc1N)N1CCOc2nc(-c3cc(O)cc4ccc(F)c(F)c34)c(F)c3nc(OC[C@@]45CCCN4C/C(=C\F)C5)nc1c23 (stereo partly drawn) [Compound 11] | 4 nM | 1 nM | 1 nM |
| Cc1cc(F)c2sc(N)nc2c1-c1nc2c3c(nc(OC[C@@]45CCCN4C[C@H](F)C5)nc3c1F)N(C(C)c1cccnc1N)[C@@H](C)CO2 (stereo partly drawn) [Compound 340] | 39 nM | 2 nM | 4 nM |
| Cc1ccnc(N)c1C(C)N1CCOc2nc(-c3cc(N)c(F)c(C)c3C(F)(F)F)c(F)c3nc(OC[C@@]45CCCN4C[C@H](F)C5)nc1c23 (single isomer, unassigned) [Compound 257, 3-((R or S)-1-(5-(5-amino-4-fluoro-3-methyl-2-(trifluoromethyl)phenyl)-4-fluoro-2-(((2R,7aS)-2-fluorotetrahydro-1H-pyrrolizin-7a(5H)-yl)methoxy)-8,9-dihydro-10H-7-oxa-1,3,6,10-tetraazacyclohepta[de]naphthalen-10-yl)ethyl)-4-methylpyridin-2-amine] | 51 nM | 2 nM | 6 nM |
| CC(c1cccnc1N)N1CCOc2nc(-c3cc(N)cc(Cl)c3C(F)(F)F)c(F)c3nc(OC[C@@H]4CCCN4C)nc1c23 (stereo partly drawn) [Compound 64] | 23 nM | 0.6 nM | 2 nM |
| CC(c1cccnc1N)N1CCOc2nc(-c3cc(O)cc(Cl)c3C3CC3)c(F)c3nc(OC[C@@H]4CCCN4C)nc1c23 (single isomer, unassigned) [Compound 32, 3-(10-((R or S)-1-(2-aminopyridin-3-yl)ethyl)-4-fluoro-2-(((S)-1-methylpyrrolidin-2-yl)methoxy)-9,10-dihydro-8H-7-oxa-1,3,6,10-tetraazacyclohepta[de]naphthalen-5-yl)-5-chloro-4-cyclopropylphenol] | 50 nM | 3 nM | 6 nM |
| [2H]C1([2H])CC[C@@]2(COc3nc4c5c(nc(-c6cc(N)c(F)c(C)c6C(F)(F)F)c(F)c5n3)OCCN4C(C)c3cccnc3N)C[C@@]([2H])(F)CN12 (stereo partly drawn) [Compound 148] | 1 nM | 0.2 nM | 0.3 nM |
| C#Cc1c(F)ccc2cc(O)cc(-c3nc4c5c(nc(OC[C@@]67CCCN6C[C@H](F)C7)nc5c3F)N(C3CC3)CCO4)c12 [Compound 197] | > 100 nM | > 100 nM | > 100 nM |
| [2H]C1([2H])CN(C(C)c2cccnc2N)c2nc(OC[C@@]34CCCN3C[C@H](F)C4)nc3c(F)c(-c4cc(N)c(F)c(C)c4C(F)(F)F)nc(c23)O1 (single isomer, unassigned) [Compound 183, 3-((R or S)-1-(5-(5-amino-4-fluoro-3-methyl-2-(trifluoromethyl)phenyl)-4-fluoro-2-(((2R,7aS)-2-fluorotetrahydro-1H-pyrrolizin-7a(5H)-yl)methoxy)-8,9-dihydro-10H-7-oxa-1,3,6,10-tetraazacyclohepta[de]naphthalen-10-yl-8,8-d2)ethyl)pyridin-2-amine] | 1 nM | 0.1 nM | 0.3 nM |
| CC(=O)Nc1ncccc1C(C)N1CCOc2nc(-c3cc(N)c(F)c(C)c3C(F)(F)F)c(F)c3nc(OC[C@@]45CCCN4C[C@H](F)C5)nc1c23 (stereo partly drawn) [Compound 266] | > 100 nM | 95 nM | > 100 nM |
| CC(c1cccnc1N)N1CCOc2nc(-c3cc(N)c(F)c(Cl)c3C(F)(F)F)c(F)c3nc(OC[C@@]45CCCN4C/C(=C\F)C5)nc1c23 (stereo partly drawn) [Compound 229] | 0.5 nM | 0.1 nM | 0.5 nM |
| [2H]C1([2H])CN(C(C)c2cccnc2N)c2nc(OC[C@@]34CCCN3C[C@H](F)C4)nc3c(F)c(-c4cc(N)cc(C)c4C(F)(F)F)nc(c23)O1 (stereo partly drawn) [Compound 140] | 1 nM | 0.3 nM | 0.9 nM |
| [2H]C([2H])(Oc1nc2c3c(nc(-c4cc(N)c(F)c(C)c4C(F)(F)F)c(F)c3n1)OCCN2C(C)c1cccnc1N)[C@@H]1CCC([2H])([2H])N1C([2H])([2H])[2H] (stereo partly drawn) [Compound 104] | 24 nM | 2 nM | 3 nM |
| Cc1ccc2[nH]ncc2c1-c1nc2c3c(nc(OC[C@@]45CCCN4C[C@H](F)C5)nc3c1F)N(C(C)c1cccnc1N)[C@@H](C)CO2 (stereo partly drawn) [Compound 318] | 37 nM | 1 nM | 7 nM |
| C#Cc1c(F)ccc2cc(O)cc(-c3nc4c5c(nc(OC[C@@H]6C[C@@H](F)CN6C)nc5c3F)N(C(C)c3cccnc3N)[C@@H](C)CO4)c12 (single isomer, unassigned) [Compound 284, 4-((S)-10-((R or S)-1-(2-aminopyridin-3-yl)ethyl)-4-fluoro-2-(((2S,4R)-4-fluoro-1-methylpyrrolidin-2-yl)methoxy)-9-methyl-9,10-dihydro-8H-7-oxa-1,3,6,10-tetraazacyclohepta[de]naphthalen-5-yl)-5-ethynyl-6-fluoronaphthalen-2-ol] | 0.3 nM | 0.2 nM | 0.5 nM |
| Cc1c(C(F)(F)F)c(-c2nc3c4c(nc(OCC5(CN(C)CCO)CC5)nc4c2F)N(C(C)c2cccnc2N)[C@@H](C)CO3)c2cn[nH]c2c1F (stereo partly drawn) [Compound 394, (*)2-(((1-((((9S)-10-(1-(2-aminopyridin-3-yl)ethyl)-4-fluoro-5-(7-fluoro-6-methyl-5-(trifluoromethyl)-1H-indazol-4-yl)-9-methyl-9,10-dihydro-8H-7-oxa-1,3,6,10-tetraazacyclohepta[de]naphthalen-2-yl)oxy)methyl)cyclopropyl)methyl)(methyl)amino)ethan-1-ol] | 36 nM | 1 nM | 2 nM |
| Cc1c(F)c(N)cc(-c2nc3c4c(nc(OC[C@@]56CCCN5C[C@H](F)C6)nc4c2F)N([C@H](C)c2cn(C)nc2N)CCO3)c1C(F)(F)F (single isomer, unassigned) [Compound 260, 4-((R or S)-1-(5-(5-amino-4-fluoro-3-methyl-2-(trifluoromethyl)phenyl)-4-fluoro-2-(((2R,7aS)-2-fluorotetrahydro-1H-pyrrolizin-7a(5H)-yl)methoxy)-8,9-dihydro-10H-7-oxa-1,3,6,10-tetraazacyclohepta[de]naphthalen-10-yl)ethyl)-1-methyl-1H-pyrazol-3-amine] | > 100 nM | 30 nM | 65 nM |
| Cc1c(F)c(N)cc(-c2nc3c4c(nc(OC[C@@]56CCCN5C[C@@]5(CC5(F)F)C6)nc4c2F)N(C(C)c2cccnc2N)CCO3)c1C(F)(F)F (single isomer, unassigned; diastereomer 1) [Compound 238, (*)3-(1-(5-(5-amino-4-fluoro-3-methyl-2-(trifluoromethyl)phenyl)-2-(((1R or 1S,7a′S)-2,2-difluorodihydro-1′H,3′H-spiro[cyclopropane-1,2′-pyrrolizin]-7a′(5′H)-yl)methoxy)-4-fluoro-8,9-dihydro-10H-7-oxa-1,3,6,10-tetraazacyclohepta[de]naphthalen-10-yl)ethyl)pyridin-2-amine (diastereomer 1)] | 0.8 nM | 0.2 nM | 0.6 nM |
| Cc1c(F)c(N)cc(-c2nc3c4c(nc(OC[C@@]56CCC(=O)N5C[C@H](F)C6)nc4c2F)N(C(C)c2cccnc2N)CCO3)c1C(F)(F)F (stereo partly drawn) [Compound 195] | > 100 nM | 33 nM | 99 nM |
| CC(c1cccnc1N)N1c2nc(OC[C@@]34CCCN3C[C@H](F)C4)nc3c(F)c(-c4cc5[nH]ncc5cc4C(F)(F)F)nc(c23)OC[C@@H]1C (stereo partly drawn) [Compound 325] | > 100 nM | 28 nM | 44 nM |
| Cc1c(F)c(N)cc(-c2nc3c4c(nc(OC[C@@]56CCCN5C[C@H](F)C6)nc4c2F)N(C(C)c2cccnc2N)CCO3)c1C(F)(F)F (stereo partly drawn) [Compound 120] | 1 nM | 0.3 nM | 0.4 nM |
